# Assay results from patent US20020037531A1, “Expression cloning of protein targets for phospholipids” (priority 1999, published 2002).
# Substitutions are numbered along the chain they refer to.
# Columns and labels:
# PH domain of EST684797 = molecular target: T1, PH domain of EST684797 (Homo sapiens, UniProt Q9UN19); conditions: literature; cited from earlier work
# T1 sequence (Q9UN19 164-259): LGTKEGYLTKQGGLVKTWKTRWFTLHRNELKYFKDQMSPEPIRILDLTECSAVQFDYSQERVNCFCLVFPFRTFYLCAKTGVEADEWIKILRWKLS
# PHISH = molecular target: T2, PHISH (Mus musculus, UniProt Q9QXT1); test: Competition binding of non-biotinylated lipids against biotinylated PtdIns-3,4,5-P3 on avidin beads; design: species or system murine; conditions: for relative affinity for PHISH in competition binding studies: FIG. 4B; for displacement of PHISH from PtdIns-3,4,5-P3-biotin bound to avidin beads: FIG. 4B legend, compared with PtdIns-4,5-P2
# T2 construct: the gene for PHISH isolated from the expression screen encodes the entire protein; made in house; host or cells: in vitro transcription/translation (reticulocyte lysate) of a clone from a murine spleen cDNA library in pCS2(+)
# T2 sequence (Q9QXT1 1-280): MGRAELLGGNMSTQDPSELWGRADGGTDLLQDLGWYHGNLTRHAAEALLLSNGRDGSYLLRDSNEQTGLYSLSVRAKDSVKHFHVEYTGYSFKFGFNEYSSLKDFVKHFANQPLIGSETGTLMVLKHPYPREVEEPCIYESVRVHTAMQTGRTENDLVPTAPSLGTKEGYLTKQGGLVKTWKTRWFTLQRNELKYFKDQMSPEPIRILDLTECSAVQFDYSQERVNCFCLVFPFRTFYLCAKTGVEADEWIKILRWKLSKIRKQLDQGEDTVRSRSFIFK
# Experimental: (§1) Binding and Isolation of Radiolabeled In Vitro Translated Proteins with Biotinylated Phosphoinositides. Avidin beads (Ultralink immobilized Neutravidin™, Pierce Chemical) were washed twice with 5 volumes of wash/binding (WB) buffer (10 mM HEPES pH=7.4, 150 mM NaCl, 0.5% NP-40, 5 mM DTT). The beads were then reconstituted in 2×volume of WB buffer and the biotinylated phosphoinositide was added. Generally, 0.1 μl of 100 μM biotinylated lipid was bound per 1 μl of packed avidin beads. The biotinylated lipid was incubated with the beads for 1-2 hours at 4° C. with gentle agitation and then washed twice with 10×-bead volume of WB buffer to remove excess ligand. Control beads without biotinylated lipid were prepared in an identical manner but without the addition of the lipid. 5 μl of the ^35S-labelling reaction containing the in vitro transcribed/translated protein was then added to the tubes and the protein was allowed to bind for 2 hours at 4° C. with gentle agitation. The tubes were then centrifuged briefly, the beads were washed 2×with 0.5 ml WB buffer, and the bound proteins were eluted by boiling the beads in 20 μl Laemmli sample buffer containing 5% 2-mercaptoethanol. The proteins were then separated on a 13.75% SDS-PAGE gel. Following electrophoresis the gel was soaked in EnHance (Dupont/NEN) for 1 hour and then in a 7.5% w/v solution of PEG-3350 for 1 hour. The gel was then dried and subjected to autoradiography.
# Competition Binding of Isolated Proteins for Non-biotinylated Lipids over Biotinylated Lipids. […] Binding was quantitated by measuring the intensities of bands from the autoradiogram or by scintillation counting of the eluted proteins in Laemmli sample buffer using Opti-fluor (Packard). Binding curves were modeled by the equation: […]
# where % bound represents the quantity of protein bound to the biotinylated lipid coated beads in the presence of a concentration C of competing lipid. IC50 is the molar excess of competitor C required to reduce the % bound to 50% of its maximal value in the absence of competitor.
# In Vitro Translation Expression Cloning. A murine spleen cDNA library containing 2×10^5 independent clones was divided into 1700 individual small pools. The cDNAs in this library had been cloned into the in vitro transcription vector pCS2(+) under control of the SP6 promoter. Individual cDNAs from positive pools were isolated from the other cDNAs of the pool using a 96-well format as described previously. The individual cDNAs were sequenced (Harvard Biopolymer Facility) and compared with known sequences by searching GenBank databases.
# [1] = molecular target: MBP-Akt PH fusion protein (Mus musculus, UniProt P31750); test: as above; conditions: FIG. 2C legend; compared with PtdIns-4,5-P2
# MBP-Akt PH fusion protein, sequence (P31750 1-130): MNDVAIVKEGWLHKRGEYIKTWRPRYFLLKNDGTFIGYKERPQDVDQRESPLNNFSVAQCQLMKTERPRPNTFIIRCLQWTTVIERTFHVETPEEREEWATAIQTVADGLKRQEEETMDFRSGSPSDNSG
# Experimental: The proteins were expressed by transcribing/translating 0.01-1 μg of DNA of MBP or MBP-Akt PH with the Promega TnT Coupled Reticulocyte Lysate System using SP6 RNA polymerase and ^35S-methionine (in vivo labeling grade, Amersham) according to the manufacturers protocol.
# Binding and Isolation of Radiolabeled In Vitro Translated Proteins with Biotinylated Phosphoinositides. Avidin beads (Ultralink immobilized Neutravidin™, Pierce Chemical) were washed twice with 5 volumes of wash/binding (WB) buffer (10 mM HEPES pH=7.4, 150 mM NaCl, 0.5% NP-40, 5 mM DTT). The beads were then reconstituted in 2×volume of WB buffer and the biotinylated phosphoinositide was added. Generally, 0.1 μl of 100 μM biotinylated lipid was bound per 1 μl of packed avidin beads. The biotinylated lipid was incubated with the beads for 1-2 hours at 4° C. with gentle agitation and then washed twice with 10×-bead volume of WB buffer to remove excess ligand. […]
# Competition Binding of Isolated Proteins for Non-biotinylated Lipids over Biotinylated Lipids. […] Binding was quantitated by measuring the intensities of bands from the autoradiogram or by scintillation counting of the eluted proteins in Laemmli sample buffer using Opti-fluor (Packard). […]
# PH domain of Akt = PH domain of Akt (Homo sapiens, UniProt P31749); conditions: two published studies; cited from earlier work
# PH domain of Akt, sequence (P31749 5-108 limits assumed): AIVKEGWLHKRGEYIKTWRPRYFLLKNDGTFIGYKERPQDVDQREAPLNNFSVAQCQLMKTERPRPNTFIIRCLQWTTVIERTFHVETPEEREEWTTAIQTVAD
# [2] = molecular target: T3, PDK1 (C-terminal fragment with PH domain) (Mus musculus, UniProt Q9Z2A0); test: Binding of 35S-labeled in vitro translated protein to avidin beads pre-bound with biotinylated phosphoinositide; design: species or system murine; conditions: FIG. 3A top panel right
# T3 construct: the first in-frame AUG codon appears at the end of the kinase domain such that only the entire PH domain of PDK1 is translated; made in house; host or cells: in vitro transcription/translation (reticulocyte lysate) of a clone from a murine spleen cDNA library in pCS2(+)
# T3 sequence (Q9Z2A0 462-553 limits assumed): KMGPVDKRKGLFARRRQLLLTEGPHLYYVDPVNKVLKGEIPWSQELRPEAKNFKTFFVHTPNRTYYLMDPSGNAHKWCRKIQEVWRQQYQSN
# Experimental: as §1, with “The gel was then dried and subjected to autoradiography.” left out
# PH domain of PDK1 = molecular target: T4, PH domain of PDK1 (Homo sapiens, UniProt O15530); conditions: literature, relative affinities; cited from earlier work
# T4 sequence (O15530 459-550 limits assumed): T3 sequence (Q9Z2A0 462-553 limits assumed) with Q88R, N92H
relative affinity for PHISH in competition binding studies (PHISH),"displacement of PHISH from PtdIns-3,4,5-P3-biotin bound to avidin beads (PHISH)","displacement of MBP-PH from PtdIns-3,4,5-P3-biotin [1]",Substance,binding to the PH domain of EST684797 (PH domain of EST684797),rank order of affinities for the PH domain of Akt (PH domain of Akt),binding of the expressed purified PDK1 fragment (single clone) [2],affinity for the PH domain of PDK1 (PH domain of PDK1)
equal affinity,preferentially displace,preferentially displace,"phosphatidylinositol-3,4-bisphosphate [PtdIns-3,4-P2]",binds tightly and selectively,"PtdIns-3,4,5-P3>PtdIns-3,4-P2>>PtdIns-4,5-P2","apparent lower affinity than for PtdIns-3,4,5-P3",
equal affinity,preferentially displace,,"phosphatidylinositol-3,4,5-trisphosphate [PtdIns-3,4,5-P3]",binds tightly and selectively,,,four-fold higher affinity
significantly lower affinity,,,"phosphatidylinositol-4,5-bisphosphate [PtdIns-4,5-P2]",,"PtdIns-3,4,5-P3>PtdIns-3,4-P2>>PtdIns-4,5-P2",,much lower affinity
